PMC12314110, “Evaluation of Potential Effects of CYP3A Inhibition and CYP3A Induction on the Pharmacokinetics of Fruquintinib in Healthy Subjects” (Clinical Pharmacology in Drug Development, 2025)

Key:
[1] = Safety assessments (adverse events) in healthy subjects; format: in vivo, human; conditions: Part B, after rifampin alone (Treatment Period 2); back pain, 1/14 subjects, mild (Grade 1), unrelated to study treatment
Protocol: Safety was assessed by evaluation of adverse events (AEs), serious AEs, AEs of special interest, physical examinations, vital signs, single 12‐lead electrocardiograms and cardiac monitoring, and clinical laboratory data. All AEs were coded using the Medical Dictionary for Regulatory Activities Version 23.0, and their severity was graded using the National Cancer Institute Common Terminology Criteria for Adverse Events Version 5.0.

[2] = set-up: method as in PMID 9925057; conditions: cited from earlier work

For CO[C@H]1/C=C/O[C@@]2(C)Oc3c(C)c(O)c4c(O)c(c(/C=N/N5CCN(C)CC5)c(O)c4c3C2=O)NC(=O)/C(C)=C\C=C\[C@H](C)[C@H](O)[C@@H](C)[C@@H](O)[C@@H](C)[C@H](OC(C)=O)[C@@H]1C [rifampin, reference compound], the “treatment‐emergent AE incidence” value [1] is given as 7.1% and the “reduction of absorption when ingested with food” value [2] is given as “approximately 30%”.
